Reference: ChEMBL document CHEMBL1157376, “Plasmid-mediated quinolone resistance determinant QnrB4 identified in France in an Enterobacter cloacae clinical isolate coexpressing a QnrS1 determinant” (2007)
Converted amounts (≈) assume the structure as drawn.

Columns and labels:
Type in all cases: functional
[1] = system: Enterobacter cloacae; assay: Antibacterial activity against Enterobacter cloacae S1 isolate expressing quinolone resistance determinant QnrB4 by E-test
[2] = system: Escherichia coli; assay: Antibacterial activity against Escherichia coli TOP10 by E-test
[3] = system: Escherichia coli; assay: Antibacterial activity against Escherichia coli TOP10 containing pS1A plasmid expressing quinolone resistance determinant QnrB4 by E-test
[4] = system: Escherichia coli; assay: Antibacterial activity against Escherichia coli TOP10 containing pS1B plasmid expressing quinolone resistance determinant QnrS1 by E-test

SMILES	MIC [1]	MIC [2]	MIC [3]	MIC [4]
CCn1cc(C(=O)O)c(=O)c2cc(F)c(N3CCNCC3)cc21 [NORFLOXACIN]	> 32 µg/mL	0.03 µg/mL (≈ 0.0939 µM)	0.25 µg/mL (≈ 0.783 µM)	0.5 µg/mL (≈ 1.57 µM)
CCn1cc(C(=O)O)c(=O)c2ccc(C)nc21 [NALIDIXIC ACID]	> 256 µg/mL	1 µg/mL (≈ 4.31 µM)	2 µg/mL (≈ 8.61 µM)	4 µg/mL (≈ 17.2 µM)
COc1c(N2C[C@@H]3CCCN[C@@H]3C2)c(F)cc2c(=O)c(C(=O)O)cn(C3CC3)c12 [MOXIFLOXACIN]		< 0.01 µg/mL	0.12 µg/mL (≈ 0.299 µM)	0.25 µg/mL (≈ 0.623 µM)
CC1COc2c(N3CCN(C)CC3)c(F)cc3c(=O)c(C(=O)O)cn1c23 (stereo not drawn) [OFLOXACIN]	> 32 µg/mL			0.25 µg/mL (≈ 0.692 µM)
O=C(O)c1cn(C2CC2)c2cc(N3CCNCC3)c(F)cc2c1=O [CIPROFLOXACIN]		< 0.01 µg/mL		
C[C@@H]1CN(c2c(F)c(N)c3c(=O)c(C(=O)O)cn(C4CC4)c3c2F)C[C@H](C)N1 [SPARFLOXACIN]	> 32 µg/mL	< 0.01 µg/mL	0.03 µg/mL (≈ 0.0765 µM)	0.25 µg/mL (≈ 0.637 µM)
